In patent publication US9877957B2, “Tetrahydroisoquinoline derivatives useful as inhibitors of diacylglyceride O-acyltransferase 2” (Merck Sharp & Dohme Corp., priority 2014, dated 2018) one finds IC50 data, which are given here for 14 molecules.

The target of the test is hDGAT2 (Homo sapiens (Human), UniProt Q96PD7). As to the kind of experiment: DGAT2 Enzymatic Activity Assay (triolein formation, LC/MS/MS). Type of test: biochemical. Conditions: Sf-9 membrane prep expressing hDGAT2; 25 μM diolein, 10 μM oleoyl-CoA; room temperature; read-out: IC50 values for inhibition of DGAT2. Put shortly: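 Untagged hDGAT2 in Sf-9 membranes (10 ng/μL) with 25 μM diolein and 10 μM oleoyl-CoA in 100 mM Tris·Cl pH 7.0, 20 mM MgCl2, 5% ethanol at room temperature. Triolein measured by LC/MS/MS against spiked internal standard; IC50 from 4-parameter sigmoidal fit of % inhibition.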
hDGAT2, sequence (Q96PD7 whole entry): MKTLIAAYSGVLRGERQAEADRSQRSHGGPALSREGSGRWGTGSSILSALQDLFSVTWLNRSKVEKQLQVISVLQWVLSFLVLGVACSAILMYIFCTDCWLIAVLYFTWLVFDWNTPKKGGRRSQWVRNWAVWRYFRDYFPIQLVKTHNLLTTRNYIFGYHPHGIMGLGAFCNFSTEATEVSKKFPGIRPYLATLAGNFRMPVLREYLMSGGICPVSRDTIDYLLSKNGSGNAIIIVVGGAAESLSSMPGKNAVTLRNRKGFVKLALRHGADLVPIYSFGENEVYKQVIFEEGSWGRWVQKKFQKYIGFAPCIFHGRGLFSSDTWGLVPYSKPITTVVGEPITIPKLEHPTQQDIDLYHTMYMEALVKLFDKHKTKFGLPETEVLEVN
As for `CC(C)(C)NC(=O)N1CCc2c(-c3cccc(C(F)(F)F)c3)ccc(C(=O)NCc3cnc4ccccn34)c2C1` [Example 66, N^2-(tert-butyl)-N^8-(imidazo[1,2-a]pyridin-3-ylmethyl)-5-(3-(trifluoromethyl)phenyl)-3,4-dihydroisoquinoline-2,8(1H)-dicarboxamide], the IC50 was 0.0534 µM. With `Cc1nonc1CNC(=O)c1ccc(-c2cccc(C(F)(F)F)c2)c2c1CN(C(=O)NC(C)(C)C)CC2` [Example 67, N^2-(tert-butyl)-N^8-((4-methyl-1,2,5-oxadiazol-3-yl)methyl)-5-(3-(trifluoromethyl)phenyl)-3,4-dihydroisoquinoline-2,8(1H)-dicarboxamide] the figure was 0.244 µM; with `Cn1ccnc1CNC(=O)c1ccc(-c2cccc(C(F)(F)F)c2)c2c1CN(C(=O)NC(C)(C)C)CC2` [Example 68, N^2-(tert-butyl)-N^8-((1-methyl-1H-imidazol-2-yl)methyl)-5-(3-(trifluoromethyl)phenyl)-3,4-dihydroisoquinoline-2,8(1H)-dicarboxamide], 0.474 µM; with `CC(C)(C)NC(=O)N1CCc2c(-c3cccc(C(F)(F)F)c3)ccc(C(=O)NCCn3cnnc3)c2C1` [Example 71, N^8-(2-(4H-1,2,4-triazol-4-yl)ethyl)-N^2-(tert-butyl)-5-(3-(trifluoromethyl)phenyl)-3,4-dihydroisoquinoline-2,8(1H)-dicarboxamide], 0.178 µM. With `CC(NC(=O)c1ccc(-c2cccc(C(F)(F)F)c2)c2c1CN(C(=O)NC(C)(C)C)CC2)c1nncs1` (centres unmarked) [Example 72, N^8-(1-(1,3,4-thiadiazol-2-yl)ethyl)-N^2-(tert-butyl)-5-(3-(trifluoromethyl)phenyl)-3,4-dihydroisoquinoline-2,8(1H)-dicarboxamide] the figure was 0.659 µM; with `CC(NC(=O)c1ccc(-c2cccc(OC(F)(F)F)c2)c2c1CN(C(=O)NC(C)(C)C)CC2)c1nc(-c2ccccn2)no1` (centres unmarked) [Example 73, N^2-(tert-butyl)-N^8-(1-(3-(pyridin-2-yl)-1,2,4-oxadiazol-5-yl)ethyl)-5-(3-(trifluoromethoxy)phenyl)-3,4-dihydroisoquinoline-2,8(1H)-dicarboxamide], 0.511 µM.

With `CC(C)(C)NC(=O)N1CCc2c(-c3cccc(OC(F)(F)F)c3)ccc(C(=O)NCc3cn4ccsc4n3)c2C1` [Example 74, N^2-(tert-butyl)-N^8-(imidazo[2,1-b]thiazol-6-ylmethyl)-5-(3-(trifluoromethoxy)phenyl)-3,4-dihydroisoquinoline-2,8(1H)-dicarboxamide], the half-maximal inhibitory concentration (IC50) was 1.54 µM. The figure for `CC(C)(C)NC(=O)N1CCc2c(-c3cccc(OC(F)(F)F)c3)ccc(C(=O)NCc3nnc4n3CCC4)c2C1` [Example 75, N^2-(tert-butyl)-N^8-((6,7-dihydro-5H-pyrrolo[2,1-c][1,2,4]triazol-3-yl)methyl)-5-(3-(trifluoromethoxy)phenyl)-3,4-dihydroisoquinoline-2,8(1H)-dicarboxamide] is 2.49 µM.

As to `CC(C)(C)NC(=O)N1CCc2c(-c3cccc(OC(F)(F)F)c3)ccc(C(=O)NCCn3ccnn3)c2C1` [Example 76, N^8-(2-(1H-1,2,3-triazol-1-yl)ethyl)-N^2-(tert-butyl)-5-(3-(trifluoromethoxy)phenyl)-3,4-dihydroisoquinoline-2,8(1H)-dicarboxamide], the IC50 is 2.58 µM. As to `CC(CNC(=O)c1ccc(-c2cccc(OC(F)(F)F)c2)c2c1CN(C(=O)NC(C)(C)C)CC2)c1cnco1` (centres unmarked) [Example 77, N^2-(tert-butyl)-N^8-(2-(oxazol-5-yl)propyl)-5-(3-(trifluoromethoxy)phenyl)-3,4-dihydroisoquinoline-2,8(1H)-dicarboxamide], the IC50 worked out at 0.867 µM.

For the molecule `CC(CNC(=O)c1ccc(-c2cccc(OC(F)(F)F)c2)c2c1CN(C(=O)NC(C)(C)C)CC2)c1cccnc1` (centres unmarked) [Example 78, N^2-(tert-butyl)-N^8-(2-(pyridin-3-yl)propyl)-5-(3-(trifluoromethoxy)phenyl)-3,4-dihydroisoquinoline-2,8(1H)-dicarboxamide], the IC50 was 1.18 µM. In the case of `CC(C)(C)NC(=O)N1CCc2c(-c3cccc(OC(F)(F)F)c3)ccc(C(=O)NCc3cccc4ccnn34)c2C1` [Example 79, N^2-(tert-butyl)-N^8-(pyrazolo[1,5-a]pyridin-7-ylmethyl)-5-(3-(trifluoromethoxy)phenyl)-3,4-dihydroisoquinoline-2,8(1H)-dicarboxamide], the half-inhibitory concentration (IC50) amounted to 0.149 µM. With `CC(C)(C)NC(=O)N1CCc2c(-c3cccc(OC(F)(F)F)c3)ccc(C(=O)NCc3cc(-c4ccccn4)no3)c2C1` [Example 80, N^2-(tert-butyl)-N^8-((3-(pyridin-2-yl)isoxazol-5-yl)methyl)-5-(3-(trifluoromethoxy)phenyl)-3,4-dihydroisoquinoline-2,8(1H)-dicarboxamide] the figure was 0.524 µM. For `CC(C)(C)NC(=O)N1CCc2c(-c3cccc(OC(F)(F)F)c3)ccc(C(=O)NCc3cnn4ccccc34)c2C1` [Example 81, N^2-(tert-butyl)-N^8-(pyrazolo[1,5-a]pyridin-3-ylmethyl)-5-(3-(trifluoromethoxy)phenyl)-3,4-dihydroisoquinoline-2,8(1H)-dicarboxamide], the concentration for half-maximal inhibition (IC50) is 0.37 µM.
